Reference: the supplement of paper PMC10307832

Assays:
Assay in all cases: relative viability (nuclei count vs DMSO), 5 days (fraction); higher = more cells survive
Calu-6 = tested on: Calu-6
In short: (§1)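 Dosing by pin tool came one day after lung cancer cell lines were seeded in 1536-well plates, using either one drug or a fixed anchor-drug dose plus five library-drug doses (not always all listed) in √10 steps. After 5 days, nuclei were counted on 4× images. Relative viability is treated-well nuclei count divided by vehicle-well nuclei count, and values are medians of duplicate plates.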

NCI-H1703 = tested on: NCI-H1703
In short: as §1

EBC-1 = tested on: EBC-1
In short: as §1

A549 = tested on: A549
In short: as §1

IA-LM = tested on: IA-LM
In short: as §1

NCI-H1299 = tested on: NCI-H1299
In short: as §1

NCI-H1623 = tested on: NCI-H1623
In short: as §1

NCI-H1437 = tested on: NCI-H1437
In short: as §1

In the case of `C[C@@H]1CN(CC(=O)Nc2ccc3c(c2)Cc2cccc(-c4cc(=O)cc(N5CCOCC5)o4)c2S3)C[C@H](C)O1` + COc1cc2c(Oc3ccc(NC(=O)C4(C(=O)Nc5ccc(F)cc5)CC4)cc3F)ccnc2cc1OCCCN1CCOCC1 [Foretinib] (partner 0.25 µM), the relative viability (Calu-6; first compound 0.04 µM) is reported as 0.859, the relative viability (Calu-6; first compound 0.1265 µM) is reported as 0.841 and the relative viability (Calu-6; first compound 0.4 µM) is reported as 0.896. The relative viability (Calu-6; first compound 4 µM) was 0.639, the relative viability (NCI-H1703; first compound 0.04 µM) was 0.367 and the relative viability (NCI-H1703; first compound 0.1265 µM) was 0.299. The relative viability (NCI-H1703; first compound 0.4 µM) was 0.36, the relative viability (NCI-H1703; first compound 4 µM) was 0.295 and the relative viability (EBC-1; first compound 0.04 µM) was 0.119. The relative viability (EBC-1; first compound 0.1265 µM) was 0.113, the relative viability (EBC-1; first compound 0.4 µM) was 0.102 and the relative viability (EBC-1; first compound 4 µM) was 0.129. The relative viability (A549; first compound 0.04 µM) was 0.818, the relative viability (A549; first compound 0.1265 µM) was 1.01 and the relative viability (A549; first compound 0.4 µM) was 0.895. The relative viability (A549; first compound 4 µM) was 0.823, the relative viability (IA-LM; first compound 0.04 µM) was 1.19 and the relative viability (IA-LM; first compound 0.1265 µM) was 1.37. It also gave a relative viability (IA-LM; first compound 0.4 µM) of 1.27, a relative viability (IA-LM; first compound 4 µM) of 0.56 and a relative viability (NCI-H1299; first compound 0.04 µM) of 1.11. For the same compound, the relative viability (NCI-H1299; first compound 0.1265 µM) was 1.1, the relative viability (NCI-H1299; first compound 0.4 µM) was 1.06 and the relative viability (NCI-H1299; first compound 4 µM) was 0.995. The relative viability (NCI-H1623; first compound 0.04 µM) was 0.771, the relative viability (NCI-H1623; first compound 0.1265 µM) was 0.837 and the relative viability (NCI-H1623; first compound 0.4 µM) was 0.88. It also gave a relative viability (NCI-H1623; first compound 4 µM) of 0.786, a relative viability (NCI-H1437; first compound 0.04 µM) of 1.25 and a relative viability (NCI-H1437; first compound 0.1265 µM) of 1.26. The relative viability (NCI-H1437; first compound 0.4 µM) was 1.29 and the relative viability (NCI-H1437; first compound 4 µM) was 0.957.
Compound `CC(C)Oc1cc(Nc2nc(N[C@@H](C)c3ccc(F)cn3)ncc2Cl)n[nH]1` [AZ23] + COc1cc2c(Oc3ccc(NC(=O)C4(C(=O)Nc5ccc(F)cc5)CC4)cc3F)ccnc2cc1OCCCN1CCOCC1 [Foretinib] (partner 0.25 µM) has a relative viability (Calu-6; first compound 0.03162 µM) of 0.923, a relative viability (Calu-6; first compound 0.3162 µM) of 0.867 and a relative viability (NCI-H1703; first compound 0.01 µM) of 0.331. It also gave a relative viability (NCI-H1703; first compound 0.03162 µM) of 0.342, a relative viability (NCI-H1703; first compound 0.3162 µM) of 0.314 and a relative viability (EBC-1; first compound 0.01 µM) of 0.103. For the same compound, the relative viability (EBC-1; first compound 0.03162 µM) was 0.105, the relative viability (EBC-1; first compound 0.3162 µM) was 0.0863 and the relative viability (A549; first compound 0.01 µM) was 1.01. For the same compound, the relative viability (A549; first compound 0.03162 µM) was 1.03, the relative viability (A549; first compound 0.3162 µM) was 1.08 and the relative viability (IA-LM; first compound 0.01 µM) was 1.35. It also gave a relative viability (IA-LM; first compound 0.03162 µM) of 1.17, a relative viability (IA-LM; first compound 0.3162 µM) of 1.33 and a relative viability (NCI-H1299; first compound 0.01 µM) of 1.19. The relative viability (NCI-H1299; first compound 0.03162 µM) was 1.16, the relative viability (NCI-H1299; first compound 0.3162 µM) was 1.18 and the relative viability (NCI-H1623; first compound 0.01 µM) was 0.712. For the same compound, the relative viability (NCI-H1623; first compound 0.03162 µM) was 0.924, the relative viability (NCI-H1623; first compound 0.3162 µM) was 0.966 and the relative viability (NCI-H1437; first compound 0.01 µM) was 1.37. It also gave a relative viability (NCI-H1437; first compound 0.03162 µM) of 1.35 and a relative viability (NCI-H1437; first compound 0.3162 µM) of 1.4.
